According to patent US20230065953A1, “NOVEL HETEROARYL-TRIAZOLE COMPOUNDS AS PESTICIDES” (Bayer Aktiengesellschaft, priority 2019, published 2023):

Columns and labels:
Assay type in all cases: in vivo
[1] = tested on: larvae of the southern green stink bug (Nezara viridula); assay: Nezara viridula spray test (NEZAVI), comparison; details: 96 h, 500 g ai/ha, 4 dat, read-out: % Efficacy
Procedure: Nezara viridula—Spray Test (NEZAVI) • Solvent: 78.0 parts by weight of acetone • 1.5 parts by weight of dimethylformamide • Emulsifier: alkylarylpolyglycol ether
(§1) To produce a suitable preparation of active compound, 1 part by weight of active compound is mixed with the stated amount of solvent, and the concentrate is diluted with water, containing an emulsifier concentration of 1000 ppm, to the desired concentration. Further test concentrations are prepared by dilution with emulsifier containing water.
Barley plants (Hordeum vulgare) are sprayed with a test solution containing the desired concentration of the active ingredient and are infested with larvae of the southern green stink bug (Nezara viridula).
After the specified period of time, mortality in % is determined in comparison to the untreated control plant. 100% means all the stink bugs have been killed; 0% means none of the stink bugs have been killed.

[2] = tested on: fall armyworm larvae (Spodoptera frugiperda); assay: Spodoptera frugiperda spray test (SPODFR, maize leaf sections), comparison; details: 168 h, 7 dat, read-out: % Efficacy
Procedure: Spodoptera fruaiperda—Spray Test (SPODFR) • Solvent: 78.0 parts by weight acetone • 1.5 parts by weight dimethylformamide • Emulsifier: alkylarylpolyglycol ether
as §1, with “solvents” for “solvent,”, “and” for “and the concentrate”
Maize (Zea mays) leaf sections are sprayed with a preparation of the active ingredient of the desired concentration. Once dry, the leaf sections are infested with fall armyworm larvae (Spodoptera frugiperda).
After the specified period of time, mortality in % is determined in comparison to the untreated control plant. 100% means all caterpillars have been killed and 0% means none of the caterpillars have been killed.

[3] = tested on: larvae of the diamondback moth (Plutella xylostella); assay: Plutella xylostella spray test (PLUTMA), comparison; details: 168 h, 7 dat, read-out: % Efficacy
Procedure: Plutella xylostella—spray test (PLUTMA) • Solvent: 14 parts by weight of dimethylformamide • Emulsifier: alkylaryl polyglycol ether
as §1, with “solvent” for “solvent,”, “and” for “and the concentrate”, “water. Ammonium salt and/or penetration enhancer in a dosage of 1000 ppm are added to the desired concentration if necessary.” for “water.”
Cabbage leaves (Brassica oleracea) are treated by being sprayed with the preparation of the active compound of the desired concentration and are infested with larvae of the diamondback moth (Plutella xylostella).
After the specified period of time, mortality in % is determined. 100% means all the caterpillars have been killed and 0% means none of the caterpillars have been killed.

[4] = tested on: caterpillars of the fall army worm (Spodoptera frugiperda); assay: Spodoptera frugiperda spray test (SPODFR, cotton leaves), comparison; details: 168 h, 7 dat, read-out: % Efficacy
Procedure: Spodoptera fruaiperda—Spray Test (SPODFR) • Solvent: 14 parts by weight of dimethylformamide • Emulsifier: alkylaryl polyglycol ether
as §1, with “solvent” for “solvent,”, “and” for “and the concentrate”, “water. Ammonium salt and/or penetration enhancer in a dosage of 1000 ppm are added to the desired concentration if necessary.” for “water.”
Cotton leaves (Gossypium hirsutum) are treated by being sprayed with the preparation of the active compound of the desired concentration and are infested with caterpillars of the fall army worm (Spodoptera frugiperda).
After the specified period of time mortality in % is determined. 100% means all the caterpillars have been killed and 0% means none of the caterpillars have been killed.

[5] = tested on: larvae of the banded cucumber beetle (Diabrotica balteata); assay: Diabrotica balteata spray test; details: 168 h, 100 g/ha (=32 μg/well), wheat seeds, after 7 days, read-out: efficacy (seedling growth)
Outline: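 Wheat seeds germinated 1 day on agar were sprayed with compound in acetone/dimethylformamide with alkylarylpolyglycol ether emulsifier, diluted in emulsifier-containing water. Each unit then received 10-20 larvae, and % efficacy was scored after 7 days.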

[6] = tested on: larvae of the southern green stink bug (Nezara viridula); assay: Nezara viridula spray test; details: in Hordeum vulgare, 96 h
Outline: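 Barley plants sprayed with compound in acetone/dimethylformamide, diluted in water with 1000 ppm alkylarylpolyglycol ether emulsifier, then infested with Nezara viridula larvae. Percent mortality read after 4 days (100% = all killed, 0% = none).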

[7] = tested on: fall armyworm larvae (Spodoptera frugiperda); assay: Spodoptera frugiperda spray test (maize leaf sections); details: 168 h
Outline: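 Maize leaf sections sprayed with compound in acetone/dimethylformamide, diluted in water with 1000 ppm alkylarylpolyglycol ether emulsifier. Dried sections infested with fall armyworm larvae. Mortality (%) scored after 7 days; 100% = all caterpillars killed.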

| Compound | stink bug mortality at 500 g/ha [1] [%] | Emax at 20 g/ha ([2]; 20 g ai/ha) [%] | Emax at 100 g/ha ([2]; 100 g ai/ha) [%] | mortality at 20 ppm [3] [%] | Emax at 4 ppm [4] [%] | pest or weed control at 32 µg/disc, 100 g/ha [5] [%] | mortality at 500 g/ha [6] [%] | mortality at 100 g/ha [7] [%] | larval mortality at 20 g/ha ([2]; 20 g ai/ha) [%] | larval mortality at 100 g/ha ([2]; 100 g ai/ha) [%] | mortality at 100 g/ha [6] [%] |
| --- | --- | --- | --- | --- | --- | --- | --- | --- | --- | --- | --- |
| C[C@H](NC(=O)c1cc(Cl)cc(S(=O)(=O)C(F)(F)F)c1)c1ncnn1-c1nccs1 [I-077, reference compound] | 0 | 33 | 67 |  |  |  |  |  |  |  |  |
| C[C@H](NC(=O)c1cc(Cl)cc(C(F)(F)F)c1)c1ncnn1-c1ncc(C(F)(F)F)s1 [I-085] |  |  |  | 40 | 20 |  |  |  |  |  |  |
| C[C@H](NC(=O)c1cc(Cl)cc(S(=O)(=O)C(F)(F)F)c1)c1ncnn1-c1ncc(C#N)s1 [I-60] | 100 |  |  |  |  | 100 | 100 | 100 | 100 | 100 |  |
| CNC(=O)c1cnc(-n2ncnc2[C@H](C)NC(=O)c2cc(Cl)cc(S(=O)(=O)C(F)(F)F)c2)s1 [I-110] | 100 | 67 |  |  |  | 100 | 100 | 100 |  | 100 | 90 |
